Test results from paper PMC8014119 (Angewandte Chemie (International Ed. in English), 2021).
Read-outs that look alike come from different tables or passages of the source.

Experiments:
[1] = molecular target: SARS-CoV-2 Mpro (Severe acute respiratory syndrome coronavirus 2, UniProt P0DTD1); format: biochemical
[2] = molecular target: His-tagged SARS-CoV-2 Mpro (Severe acute respiratory syndrome coronavirus 2, UniProt P0DTD1); test: Mpro inhibition in the presence of mammalian cell lysates; format: biochemical; conditions: 50 µM substrate, 10 min, 37 °C
[3] = tested on: SARS-CoV-2; conditions: Vero E6 cells; cited from earlier work
[4] = molecular target: human cathepsin L (Homo sapiens, UniProt P07711); test: Inhibition of human cathepsin L; format: biochemical; conditions: in words
human cathepsin L, sequence (P07711 114-333): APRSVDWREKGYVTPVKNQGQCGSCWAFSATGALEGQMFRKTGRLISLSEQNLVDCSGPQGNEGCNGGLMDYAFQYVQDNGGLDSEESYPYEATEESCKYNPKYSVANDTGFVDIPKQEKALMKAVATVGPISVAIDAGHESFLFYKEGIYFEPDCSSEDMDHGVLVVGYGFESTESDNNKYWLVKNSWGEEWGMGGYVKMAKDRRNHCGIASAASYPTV

[5] = molecular target: human cathepsin B (Homo sapiens, UniProt P07858); test: Inhibition of human cathepsin B; format: biochemical; conditions: in words
[6] = Table 2, azapeptide nitriles, 50 µM substrate, pH 7.2, 37 °C, 60 min
[7] = Table 3, 5-halopyridin-3-yl esters, kinetic analysis as Table 2

Compound | k inac/K i [1, 6] | k inac/K i [1, 7] | Mpro inhibition in HEK and A549 cell lysates ([2]; inhibitor 1 μM) | other results
CC(C)C[C@H](NC(=O)[C@@H](NC(=O)OCc1ccccc1)C(C)(C)C)C(=O)N(C)N(C#N)CCC(N)=O [Compound 5] | 2060 M⁻¹ s⁻¹ |  |  | 
CC[C@H](NC(=O)OCc1ccccc1)C(=O)N[C@H](C(=O)N[C@@H](CC(C)C)C(=O)N(C)N(C#N)CCC(N)=O)C(C)(C)C [Compound 7] | 21 400 M^−1 s^−1 |  |  | 
CN(C(=O)[C@H](Cc1ccccc1)NC(=O)OCc1ccccc1)N(C#N)CCC(N)=O [Compound 4] | 1150 M⁻¹ s⁻¹ |  |  | Mpro inhibition in HEK and A549 cell lysates ([2]; inhibitor 10 μM): virtually complete inhibition
O=C(Oc1cncc(Br)c1)c1cccc2[nH]ccc12 [Compound 18] |  | 24 000 M^−1 s^−1 |  | 
O=C(Oc1cncc(Cl)c1)c1cccc2c1CCN2 [5‐chloropyridin‐3‐yl dihydroindole‐4‐carboxylate] |  |  |  | activity against infectivity and replication of SARS-CoV-2 [3]: active
CC(C)C[C@H](NC(=O)OCc1ccccc1)C(=O)N(C)N(C#N)CCC(N)=O [Compound 3] | 489 M⁻¹ s⁻¹ |  |  | 
O=C(Oc1cncc(Cl)c1)c1ccc2[nH]c3c(c2c1)CCCC3 [Compound 19] |  | 5620 M⁻¹ s⁻¹ |  | 
O=C(Oc1cncc(Cl)c1)c1cc2cc(Cl)ccc2[nH]1 [Compound 17] |  | 29 100 M^−1 s^−1 | virtually complete inhibition | cathepsin L inhibition [4]: did not inhibit; cathepsin B inhibition [5]: did not inhibit
CN(C(=O)[C@H](Cc1ccccc1)NC(=O)[C@@H](NC(=O)OCc1ccccc1)C(C)(C)C)N(C#N)CCC(N)=O [Compound 6] | 36 000 M^−1 s^−1 |  | virtually complete inhibition | 
CC[C@H](NC(=O)OCc1ccccc1)C(=O)N[C@H](C(=O)N[C@@H](Cc1ccccc1)C(=O)N(C)N(C#N)CCC(N)=O)C(C)(C)C [Compound 8] |  |  | virtually complete inhibition | 
